From patent US20260248720A1, “COMPOSITIONS SUITABLE FOR THE ADMINISTRATION OF CREATINE ESTERS” (priority 2023, published 2026)

Assay: Chemical stability of DCE in the particulate emulsion (HPLC/UV)
Assay type: physicochemical
Protocol: The chemical stability of DCE in the particulate emulsion was monitored using an HPLC/UV method at 4° C. and at room temperature.

[1] = extrapolation with the slope of the decay

CCCCCCCCCCCCOC(=O)CN(C)C(=N)N [DCE, dodecyl creatine ester]
Calculation of remaining content (%) after 1 month of storage at room temperature [1]: 99% | Estimation of remaining content after 18 months of storage at 4° C. [1]: more than 95% | Period over which DCE is stable (storage at room temperature (20-25° C.)): more than 20 days | Period over which DCE is stable (storage in the fridge (4° C.)): more than 3 months
